Test results from ChEMBL document CHEMBL4270497, “Recent advances (2015-2016) in anticancer hybrids” (Eur J Med Chem, 2017).
Values after ≈ are worked out from the molar mass of the structure shown. Each block holds one molecule with its values, some of them ahead of it.

Tests used:
[1] = tested on: A549; assay: Cytotoxicity in human A549 cells assessed a reduction in cell viability incubated for 48 hrs by MTT assay; format: functional, cell-based; conditions: A549, 48 h
[2] = tested on: HT-29; assay: Cytotoxicity in human HT-29 cells assessed as reduction in cell viability incubated for 48 hrs by MTT assay; format: functional, cell-based; conditions: HT-29, 48 h
[3] = tested on: A549; assay: Cytotoxicity in human A549 cells assessed as reduction in cell viability incubated for 48 hrs by MTT assay; format: functional, cell-based; conditions: A549, 48 h
[4] = tested on: PC-3; assay: Cytotoxicity in human PC3 cells assessed as reduction in cell viability incubated for 48 hrs by MTT assay; format: functional, cell-based; conditions: PC-3, 48 h
[5] = tested on: U-87 MG; assay: Cytotoxicity in human U87MG cells assessed as reduction in cell viability incubated for 48 hrs by MTT assay; format: functional, cell-based, U-87MG ATCC
[6] = tested on: HUVEC; assay: Inhibition of VEGF-induced cell migration of HUVEC assessed as wound closure level at cytotoxic IC50 incubated for 24 hrs (reference value: 100%); format: functional, Homo sapiens; design: scale not given: the % may be the effect or the level left
[7] = biological target: Vascular endothelial growth factor receptor 1 (Homo sapiens, UniProt P17948); assay: Inhibition of VEGFR1 (unknown origin) using KKKSPGEYVNIEFG substrate and [33P-g-ATP] incubated for 30 mins
Chain of Vascular endothelial growth factor receptor 1 (P17948 whole entry): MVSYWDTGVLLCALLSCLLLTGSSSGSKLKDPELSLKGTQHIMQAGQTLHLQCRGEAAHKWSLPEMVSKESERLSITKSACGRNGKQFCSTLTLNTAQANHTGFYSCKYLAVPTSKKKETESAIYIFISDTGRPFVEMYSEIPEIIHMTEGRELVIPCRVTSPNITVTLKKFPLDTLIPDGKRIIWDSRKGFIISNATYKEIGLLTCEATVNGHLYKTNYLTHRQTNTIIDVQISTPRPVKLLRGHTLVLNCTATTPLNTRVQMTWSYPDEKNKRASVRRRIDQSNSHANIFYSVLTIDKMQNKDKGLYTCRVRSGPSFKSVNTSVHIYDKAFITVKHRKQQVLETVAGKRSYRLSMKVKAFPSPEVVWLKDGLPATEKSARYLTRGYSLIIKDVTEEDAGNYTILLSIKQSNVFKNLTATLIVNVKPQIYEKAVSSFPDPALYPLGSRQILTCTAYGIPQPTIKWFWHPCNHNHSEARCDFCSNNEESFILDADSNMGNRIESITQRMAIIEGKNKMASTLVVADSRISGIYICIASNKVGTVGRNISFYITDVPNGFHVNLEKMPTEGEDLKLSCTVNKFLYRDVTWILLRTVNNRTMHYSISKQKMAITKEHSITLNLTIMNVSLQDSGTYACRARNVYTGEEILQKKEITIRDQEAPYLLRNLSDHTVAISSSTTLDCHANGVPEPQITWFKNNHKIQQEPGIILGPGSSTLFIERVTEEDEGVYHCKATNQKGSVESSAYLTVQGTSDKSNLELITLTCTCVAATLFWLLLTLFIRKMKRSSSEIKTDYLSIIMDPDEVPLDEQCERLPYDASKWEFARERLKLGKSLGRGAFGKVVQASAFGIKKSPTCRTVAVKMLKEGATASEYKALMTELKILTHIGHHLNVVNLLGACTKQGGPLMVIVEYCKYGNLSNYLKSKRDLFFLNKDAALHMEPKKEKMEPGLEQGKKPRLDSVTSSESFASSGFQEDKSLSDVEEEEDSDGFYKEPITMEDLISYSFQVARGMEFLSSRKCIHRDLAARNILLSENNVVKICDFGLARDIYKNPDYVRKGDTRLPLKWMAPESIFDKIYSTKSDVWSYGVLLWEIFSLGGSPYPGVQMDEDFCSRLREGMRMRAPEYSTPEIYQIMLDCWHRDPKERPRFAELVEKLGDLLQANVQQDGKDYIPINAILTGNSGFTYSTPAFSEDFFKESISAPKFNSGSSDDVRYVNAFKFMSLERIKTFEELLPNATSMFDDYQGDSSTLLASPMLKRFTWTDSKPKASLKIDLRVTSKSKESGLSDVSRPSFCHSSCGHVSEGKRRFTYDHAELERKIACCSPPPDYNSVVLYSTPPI

[8] = tested on: MCF7; assay: Anticancer activity against human MCF7 cells assessed as reduction in cell viability incubated for 48 hrs by MTT assay; format: functional, cell-based; conditions: MCF7, 48 h
[9] = tested on: HL-60; assay: Anticancer activity against human HL60 cells assessed as reduction in cell viability incubated for 48 hrs by MTT assay; format: functional, cell-based; conditions: HL-60, 48 h
[10] = tested on: LS180; assay: Inhibition of P-gp in human LS180 cells assessed as reduction in doxorubicin cytotoxic IC50 level at 50 uM by MTT assay; format: functional
[11] = tested on: A549; assay: Antiproliferative activity against human A549 cells incubated for 48 hrs by MTT assay; format: functional, cell-based; conditions: A549, 48 h
[12] = tested on: HCT-116; assay: Antiproliferative activity against human HCT116 cells incubated for 48 hrs by MTT assay; format: functional, cell-based; conditions: HCT-116, 48 h
[13] = tested on: HeLa; assay: Antiproliferative activity against human HeLa cells incubated for 48 hrs by MTT assay; format: functional, cell-based
[14] = tested on: MCF7; assay: Antiproliferative activity against human MCF7 cells incubated for 48 hrs by MTT assay; format: functional, cell-based; conditions: MCF7, 48 h
[15] = tested on: DU-145; assay: Antiproliferative activity against human DU145 cells incubated for 48 hrs by MTT assay; format: functional, cell-based; conditions: DU-145, 48 h
[16] = tested on: HT-29; assay: Antiproliferative activity against human HT-29 cells incubated for 48 hrs by MTT assay; format: functional, cell-based; conditions: HT-29, 48 h
[17] = tested on: HEK293; assay: Antiproliferative activity against HEK293 cells incubated for 48 hrs by MTT assay; format: cell-based; conditions: Homo sapiens, HEK293, 48 h
[18] = biological target: Tyrosinase (Agaricus bisporus, UniProt O42713); assay: Inhibition of diphenolase activity of mushroom tyrosinase pre-incubated for 30 mins before L-DOPA substrate addition and measured after 1 min by spectrophotometric assay
Chain of Tyrosinase (O42713 whole entry): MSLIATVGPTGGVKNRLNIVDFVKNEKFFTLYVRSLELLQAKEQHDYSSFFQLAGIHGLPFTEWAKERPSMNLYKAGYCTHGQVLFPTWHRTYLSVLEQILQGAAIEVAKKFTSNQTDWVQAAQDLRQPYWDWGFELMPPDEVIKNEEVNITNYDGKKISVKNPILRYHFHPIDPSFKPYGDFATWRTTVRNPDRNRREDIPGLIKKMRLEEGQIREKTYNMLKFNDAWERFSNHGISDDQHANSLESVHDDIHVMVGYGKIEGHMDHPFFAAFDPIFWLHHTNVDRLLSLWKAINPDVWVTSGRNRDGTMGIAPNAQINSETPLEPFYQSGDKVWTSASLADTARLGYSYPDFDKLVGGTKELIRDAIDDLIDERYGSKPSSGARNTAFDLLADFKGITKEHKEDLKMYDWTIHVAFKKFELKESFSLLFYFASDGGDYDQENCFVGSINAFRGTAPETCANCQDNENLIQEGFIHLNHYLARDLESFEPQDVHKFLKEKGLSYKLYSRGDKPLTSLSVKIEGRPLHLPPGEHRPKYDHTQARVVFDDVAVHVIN

[19] = tested on: Panel NCI-60 (60 carcinoma cell lines); assay: Growth inhibition of human NCI60 cells incubated for 48 hrs by SRB assay; format: functional
[20] = tested on: MDA-MB-231; assay: Growth inhibition of human MDA-MB-231 cells at 10 uM; format: functional; conditions: read-out: GI
[21] = tested on: A498; assay: Growth inhibition of human A498 cells at 10 uM; format: functional; conditions: read-out: GI
[22] = tested on: KB; assay: Cytotoxicity in human KB cells assessed as reduction in cell viability; format: functional, cell-based

SMILES: COc1cc(-c2nc(/C=C/C(=O)c3ccc(F)cc3)cc3c2[nH]c2ccccc23)ccc1F
IC50 [1]: < 10 µM

SMILES: COc1ccc(Cn2cc(C(=O)c3cn(-c4ccccc4)nc3-c3ccc(F)cc3)nn2)cc1OC
IC50 [2]: 2.54 µM
IC50 [3]: 2.13 µM
IC50 [4]: 5.87 µM
IC50 [5]: 3.76 µM

IC50 [7]: 1.9 µM
SMILES: O=C(Nc1ccc(F)cc1)c1sccc1Nc1cccc2c1OCCO2
Activity [6]: 20%

IC50 [8]: 16.2 µM
IC50 [9]: 15.2 µM
SMILES: O=C(c1ccccc1)c1ccc2[nH]c(-c3c4ccccc4cc4ccccc34)nc2c1

SMILES: COc1ccc(-c2nn(-c3ccccc3)cc2C(=O)c2cn(Cc3ccc(OC)c(OC)c3)nn2)cc1
IC50 [2]: 1.78 µM
IC50 [3]: 2.24 µM
IC50 [4]: 3.52 µM
IC50 [5]: 0.97 µM

IC50 [7]: 2.5 µM
SMILES: O=C(Nc1ccc(F)cc1)c1sccc1Nc1cccc2c1OCO2
Activity [6]: 20%
Ratio IC50 [10]: 14

SMILES: O=C(/C=C/c1cc2c([nH]c3ccccc32)c(-c2ccc(F)cc2)n1)c1ccc([N+](=O)[O-])cc1
IC50 [1]: < 10 µM

IC50 [11]: 0.51 to 1.29 µM
IC50 [12]: 0.51 to 1.29 µM
IC50 [13]: 0.51 to 1.29 µM
IC50 [14]: 0.51 to 1.29 µM
SMILES: COc1ccc(Nc2ncccc2C(=O)/C=C/Nc2ccc3[nH]ccc3c2)cc1

SMILES: COc1ccc(-c2nc(/C=C/C(=O)c3cc(OC)c(OC)c(OC)c3)cc3c2[nH]c2ccccc23)cc1OC
IC50 [1]: < 10 µM

SMILES: COc1cc(-c2nc(/C=C/C(=O)c3ccc(N)cc3)cc3c2[nH]c2ccccc23)ccc1F
IC50 [1]: < 10 µM

IC50 [15]: 3.1 µM
IC50 [11]: 4.1 µM
IC50 [16]: 3.7 µM
SMILES: COc1ccc(Cn2cc(C(=O)c3cccnc3Nc3ccc(F)cc3)nn2)cc1OC
IC50 [17]: 64.3 µM

IC50 [18]: 4.72 µM
SMILES: CN(C)c1ccc(C2CC(c3cc4ccccc4o3)=NN2C(=O)Nc2ccc(Cl)cc2)c2ccccc12 (configuration not stated)

SMILES: COc1ccc(-c2nc(/C=C/C(=O)c3ccc(F)cc3)cc3c2[nH]c2ccccc23)cc1OC
IC50 [1]: < 10 µM

SMILES: CC(=O)N1N=C(c2ccc[nH]2)CC1c1cn(-c2ccccc2)nc1-c1cc2ccccc2o1 (configuration not stated)
GI50 [19]: 1 to 2.71 µM

SMILES: COc1cc(-c2nc(/C=C/C(=O)c3ccc(F)cc3)cc3c2[nH]c2ccccc23)cc(OC)c1OC
IC50 [1]: < 10 µM

IC50 [15]: 3 µM
IC50 [11]: 3.9 µM
IC50 [16]: 3.1 µM
SMILES: COc1cc(Cn2cc(C(=O)c3cccnc3Nc3ccc(F)cc3)nn2)cc(OC)c1
IC50 [17]: 75.2 µM

SMILES: COc1ccc(-c2nc(/C=C/C(=O)c3ccc(N)cc3)cc3c2[nH]c2ccccc23)cc1OC
IC50 [1]: < 10 µM

SMILES: COc1cc(-c2nc(/C=C/C(=O)c3ccc(O)cc3)cc3c2[nH]c2ccccc23)cc(OC)c1OC
IC50 [1]: < 10 µM

SMILES: Cc1cc(=O)oc2cc(Oc3nc(-c4ccccc4)cn4c(-c5ccccc5)cnc34)ccc12
inhibition of growth at 10 µM [20]: 93%
inhibition of growth at 10 µM [21]: 90%

SMILES: COc1ccc(C(=O)/C=C/c2cc3c([nH]c4ccccc43)c(-c3cc(OC)c(OC)c(OC)c3)n2)cc1
IC50 [1]: < 10 µM

SMILES: O=C(/C=C/c1cc2c([nH]c3ccccc32)c(-c2ccc(F)cc2)n1)c1ccc(F)cc1
IC50 [1]: < 10 µM

SMILES: CC[C@]1(O)C[C@H]2CN(CCc3c([nH]c4ccccc34)[C@@](C(=O)OC)(c3cc4c(cc3OC)N(C=O)[C@H]3[C@@](O)(C(=O)OC)[C@H](OC(C)=O)[C@]5(CC)C=CCN6CC[C@]43[C@@H]65)C2)C1 [VINCRISTINE]
IC50 [22]: 0.46 µg/mL (≈ 0.558 µM)
